Positions of bridges follow the written chain, without caps; N, C: chain ends. Non-standard residues stand in square brackets, D forms with d. Residues, ends and D or L forms follow the SMILES beside them. R8 = C=CCCCCCC[C@@](C)(N)C(=O)O; S5 = C=CCCC[C@](C)(N)C(=O)O
Columns and labels:
[1] = tested on: human normal Lung cell BEAS-2; assay: MTT toxicity against normal cells, BEAS-2B; assay type: cell-based; conditions: 96 h
Method: (§1) Anti-tumor activity was evaluated by the standard MTT assay with a slight modification measuring the median inhibitory concentration (IC50) values.[35] HCT-116 cells, HepG2 cells and A549 cells were plated in triplicate wells into a 96-well plate at 5 × 10^3/well and cultured routinely for 24 h. Cells were incubated with increasing concentrations of hymenochirin-1B and its analogs (0.1–30 μM) and continued to culture with DMEM plus 10% FBS at 37 °C and 5% CO2. After being incubated for 96 h, the absorbance A value was determined by MTT at 540 nm. The untreated HCT-116 cells, HepG2 cells and A549 cells were used as control. Each experiment was performed in duplicate. The inhibitory rate was calculated according to the following formula: inhibitory rate = (a value of the control group − a value of the study group)/a value of the control group × 100%.
(§2) To further research the selectivity of these peptides towards cancer cells over normal cells. The growth-inhibitory activities of peptides were evaluated using the 3-(4,5-dimethylthiazol-2-yl)-2,5-diphenyltetrazolium bromide (MTT) assay against three normal cells,[35] namely, human normal liver cell LO-2, human normal Lung cell BEAS-2 and human normal kidney cell 293 T (Table S2 ^†). The experiments procedure was performed just same as growth inhibition of the peptides against tumor cells. […] It might be due to the higher averaged hydrophobicity produced by six or nine additional methylene and two olefinic carbons to the peptide to increase toxicity to human normal cells. This situation may be resolved through the addition of polar character and glycosylation into the sequence to decrease the averaged hydrophobicity to improve the selectivity of these peptides towards cancer cells over normal cells. These modifications of these peptides are under way, and the present study was focused on the improved anti-tumor activity of template peptide hymenochirin-1B.

[2] = tested on: human normal kidney cell 293 T; assay: MTT toxicity against normal cells, 293T; assay type: cell-based; conditions: 96 h
Method: as §1, §2

[3] = Circular dichroism, α-helicity; assay type: physicochemical; conditions: CD, TFE/water (1:1), 50 μM peptide, 25 °C, 1 mm cuvette, calculated from [θ]222
Method: The linear and stapled peptides were dissolved in the trifluoroethanol (TFE) and water (1 : 1) to a final concentration of 50 μM, respectively. The CD spectra were obtained with 1 mm quartz cuvette on Jasco-815 spectropolarimeter at 25 °C. The measurement parameters were set up as follows: wavelength, 185–260 nm; step resolution, 0.5 nm; speed, 20 nm min^−1. All spectra were converted to a uniform scale of molar ellipticity after background subtraction. The curves were smoothed using standard parameters. The ellipticity in the acquired CD spectra was converted to the molar ellipticity using the equation: [θ] = θ/(10 × c × l), where, [θ] is the Molar ellipticity (deg cm^2. d mol^−1), θ is the observed ellipticity corrected for the buffer at a given wavelength (m deg), c is the molar concentration and l is the path length (cm). The helicity of each peptide was calculated as described in a literature based on the ellipticity of the peptide's spectrum at 222 nm and the number of amino acids in the peptide sequence.
Circular dichroism (CD) spectroscopy was used to investigate the secondary structures of the stapled and template peptides to probe structural changes induced by conformation constraint in a membrane-like milieu, including […] (TFE) and water (1 : 1). […] (Table 1, ESI ^†).

[4] = tested on: human normal liver cell LO-2; assay: MTT toxicity against normal cells, LO-2; assay type: cell-based; conditions: 96 h
Method: as §1, §2

CC[C@H](C)[C@H](N)C(=O)N[C@@H](CCCCN)C(=O)N[C@@H](CC(C)C)C(=O)N[C@@H](CO)C(=O)N1CCC[C@H]1C(=O)N[C@@H](CCC(=O)O)C(=O)N[C@H](C(=O)N[C@@H](CCCCN)C(=O)N[C@@H](CC(=O)O)C(=O)N[C@@H](CC(N)=O)C(=O)N[C@@H](CC(C)C)C(=O)N[C@@H](CCCCN)C(=O)N[C@@H](CCCCN)C(=O)N[C@H](C(=O)N[C@@H](CC(C)C)C(=O)N[C@@H](CCCCN)C(=O)NCC(=O)N[C@@H](C)C(=O)N[C@H](C(=O)N[C@]1(C)CCCCCCC=CCCC[C@@](C)(C(=O)N[C@@H](CCSC)C(=O)N[C@H](C(N)=O)C(C)C)NC(=O)[C@H](C)NC(=O)[C@H](C(C)C)NC(=O)[C@H](C)NC(=O)[C@H]([C@@H](C)CC)NC(=O)[C@H](C)NC(=O)CNC1=O)[C@@H](C)CC)C(C)C)[C@@H](C)O [H-6] (H-IKLSPETKDNLKKVLKGAI[R8]GAIAVA[S5]MV-NH2; staple 20-27)
IC50 (μM) BEAS-2B, toxicity against normal cells [1]: 46.58 ± 0.42 µM | IC50 (μM) 293T, toxicity against normal cells [2]: 60.11 ± 0.35 µM | Helicity (%) [3]: 64.9% | IC50 (μM) LO-2, toxicity against normal cells [4]: 49.77 ± 0.22 µM

CC[C@H](C)[C@H](N)C(=O)N[C@@H](CCCCN)C(=O)N[C@@H](CC(C)C)C(=O)N[C@@H](CO)C(=O)N1CCC[C@H]1C(=O)N[C@@H](CCC(=O)O)C(=O)N[C@H](C(=O)N[C@@H](CCCCN)C(=O)N[C@@H](CC(=O)O)C(=O)N[C@@H](CC(N)=O)C(=O)N[C@@H](CC(C)C)C(=O)N[C@@H](CCCCN)C(=O)N[C@@H](CCCCN)C(=O)N[C@H](C(=O)N[C@@H](CC(C)C)C(=O)N[C@@H](CCCCN)C(=O)N[C@]1(C)CCCCCCC=CCCC[C@@](C)(C(=O)N[C@H](C(=O)N[C@@H](C)C(=O)N[C@@H](CCCCN)C(=O)N[C@@H](CCSC)C(=O)N[C@H](C(N)=O)C(C)C)C(C)C)NC(=O)[C@H]([C@@H](C)CC)NC(=O)[C@H](C)NC(=O)CNC(=O)[C@H](CCCCN)NC(=O)[C@H]([C@@H](C)CC)NC(=O)[C@H](C)NC1=O)C(C)C)[C@@H](C)O [H-4] (H-IKLSPETKDNLKKVLK[R8]AIKGAI[S5]VAKMV-NH2; staple 17-24)
Helicity (%) [3]: 66.3%

CC[C@H](C)[C@H](N)C(=O)N[C@@H](CCCCN)C(=O)N[C@@H](CC(C)C)C(=O)N[C@@H](CO)C(=O)N1CCC[C@H]1C(=O)N[C@@H](CCC(=O)O)C(=O)N[C@H](C(=O)N[C@@H](CCCCN)C(=O)N[C@@H](CC(=O)O)C(=O)N[C@@H](CC(N)=O)C(=O)N[C@@H](CC(C)C)C(=O)N[C@@H](CCCCN)C(=O)N[C@@H](CCCCN)C(=O)N[C@H](C(=O)N[C@@H](CC(C)C)C(=O)N[C@@H](CCCCN)C(=O)NCC(=O)N[C@@H](C)C(=O)N[C@H](C(=O)N[C@@]1(C)CCCC=CCCC[C@@](C)(C(=O)N[C@H](C(=O)N[C@@H](C)C(=O)N[C@@H](CCCCN)C(=O)N[C@@H](CCSC)C(=O)N[C@H](C(N)=O)C(C)C)C(C)C)NC(=O)[C@H]([C@@H](C)CC)NC(=O)[C@H](C)NC(=O)CNC1=O)[C@@H](C)CC)C(C)C)[C@@H](C)O [H-8] (H-IKLSPETKDNLKKVLKGAI[S5]GAI[S5]VAKMV-NH2; staple 20-24)
IC50 (μM) BEAS-2B, toxicity against normal cells [1]: 12.82 ± 0.25 µM | IC50 (μM) 293T, toxicity against normal cells [2]: 15.58 ± 0.36 µM | Helicity (%) [3]: 60.5% | IC50 (μM) LO-2, toxicity against normal cells [4]: 24.82 ± 0.44 µM

CC[C@H](C)[C@H](N)C(=O)N[C@@H](CCCCN)C(=O)N[C@@H](CC(C)C)C(=O)N[C@@H](CO)C(=O)N1CCC[C@H]1C(=O)N[C@@H](CCC(=O)O)C(=O)N[C@H](C(=O)N[C@@H](CCCCN)C(=O)N[C@@H](CC(=O)O)C(=O)N[C@@H](CC(N)=O)C(=O)N[C@@H](CC(C)C)C(=O)N[C@@H](CCCCN)C(=O)N[C@@H](CCCCN)C(=O)N[C@H](C(=O)N[C@@H](CC(C)C)C(=O)N[C@@H](CCCCN)C(=O)NCC(=O)N[C@@H](C)C(=O)N[C@H](C(=O)N[C@@H](CCCCN)C(=O)NCC(=O)N[C@@]1(C)CCCC=CCCC[C@@](C)(C(=O)N[C@@H](CCCCN)C(=O)N[C@@H](CCSC)C(=O)N[C@H](C(N)=O)C(C)C)NC(=O)[C@H](C(C)C)NC(=O)[C@H](C)NC(=O)[C@H]([C@@H](C)CC)NC1=O)[C@@H](C)CC)C(C)C)[C@@H](C)O [H-7] (H-IKLSPETKDNLKKVLKGAIKG[S5]IAV[S5]KMV-NH2; staple 22-26)
IC50 (μM) BEAS-2B, toxicity against normal cells [1]: 7.50 ± 0.32 µM | IC50 (μM) 293T, toxicity against normal cells [2]: 7.25 ± 0.26 µM | Helicity (%) [3]: 65.9% | IC50 (μM) LO-2, toxicity against normal cells [4]: 6.52 ± 0.32 µM

CC[C@H](C)[C@H](N)C(=O)N[C@@H](CCCCN)C(=O)N[C@@H](CC(C)C)C(=O)N[C@@H](CO)C(=O)N1CCC[C@H]1C(=O)N[C@@H](CCC(=O)O)C(=O)N[C@H](C(=O)N[C@@H](CCCCN)C(=O)N[C@@H](CC(=O)O)C(=O)N[C@]1(C)CCCCCCC=CCCC[C@@](C)(C(=O)N[C@@H](C)C(=O)N[C@H](C(=O)N[C@@H](CCCCN)C(=O)NCC(=O)N[C@@H](C)C(=O)N[C@H](C(=O)N[C@@H](C)C(=O)N[C@H](C(=O)N[C@@H](C)C(=O)N[C@@H](CCCCN)C(=O)N[C@@H](CCSC)C(=O)N[C@H](C(N)=O)C(C)C)C(C)C)[C@@H](C)CC)[C@@H](C)CC)NC(=O)[C@H](CCCCN)NC(=O)[C@H](CC(C)C)NC(=O)[C@H](C(C)C)NC(=O)[C@H](CCCCN)NC(=O)[C@H](CCCCN)NC(=O)[C@H](CC(C)C)NC1=O)[C@@H](C)O [H-3] (H-IKLSPETKD[R8]LKKVLK[S5]AIKGAIAVAKMV-NH2; staple 10-17)
IC50 (μM) BEAS-2B, toxicity against normal cells [1]: 7.95 ± 0.36 µM | IC50 (μM) 293T, toxicity against normal cells [2]: 4.58 ± 0.34 µM | Helicity (%) [3]: 65.7% | IC50 (μM) LO-2, toxicity against normal cells [4]: 7.61 ± 0.43 µM

CC[C@H](C)[C@H](N)C(=O)N[C@@H](CCCCN)C(=O)N[C@@H](CC(C)C)C(=O)N[C@@H](CO)C(=O)N1CCC[C@H]1C(=O)N[C@@H](CCC(=O)O)C(=O)N[C@H](C(=O)N[C@@H](CCCCN)C(=O)N[C@@H](CC(=O)O)C(=O)N[C@@H](CC(N)=O)C(=O)N[C@@H](CC(C)C)C(=O)N[C@@H](CCCCN)C(=O)N[C@@H](CCCCN)C(=O)N[C@H](C(=O)N[C@@H](CC(C)C)C(=O)N[C@@H](CCCCN)C(=O)N[C@@]1(C)CCCC=CCCC[C@@](C)(C(=O)N[C@@H](C)C(=O)N[C@H](C(=O)N[C@@H](C)C(=O)N[C@H](C(=O)N[C@@H](C)C(=O)N[C@@H](CCCCN)C(=O)N[C@@H](CCSC)C(=O)N[C@H](C(N)=O)C(C)C)C(C)C)[C@@H](C)CC)NC(=O)[C@H](CCCCN)NC(=O)[C@H]([C@@H](C)CC)NC(=O)[C@H](C)NC1=O)C(C)C)[C@@H](C)O [H-9] (H-IKLSPETKDNLKKVLK[S5]AIK[S5]AIAVAKMV-NH2; staple 17-21)
IC50 (μM) BEAS-2B, toxicity against normal cells [1]: 7.72 ± 0.36 µM | IC50 (μM) 293T, toxicity against normal cells [2]: 8.66 ± 0.23 µM | IC50 (μM) LO-2, toxicity against normal cells [4]: 8.56 ± 0.32 µM

CC[C@H](C)[C@H](N)C(=O)N[C@@H](CCCCN)C(=O)N[C@@H](CC(C)C)C(=O)N[C@@H](CO)C(=O)N[C@@]1(C)CCCC=CCCC[C@@](C)(C(=O)N[C@@H](CC(N)=O)C(=O)N[C@@H](CC(C)C)C(=O)N[C@@H](CCCCN)C(=O)N[C@@H](CCCCN)C(=O)N[C@H](C(=O)N[C@@H](CC(C)C)C(=O)N[C@@H](CCCCN)C(=O)NCC(=O)N[C@@H](C)C(=O)N[C@H](C(=O)N[C@@H](CCCCN)C(=O)NCC(=O)N[C@@H](C)C(=O)N[C@H](C(=O)N[C@@H](C)C(=O)N[C@H](C(=O)N[C@@H](C)C(=O)N[C@@H](CCCCN)C(=O)N[C@@H](CCSC)C(=O)N[C@H](C(N)=O)C(C)C)C(C)C)[C@@H](C)CC)[C@@H](C)CC)C(C)C)NC(=O)[C@H](CCCCN)NC(=O)[C@H]([C@@H](C)O)NC(=O)[C@H](CCC(=O)O)NC1=O [H-1] (H-IKLS[S5]ETK[S5]NLKKVLKGAIKGAIAVAKMV-NH2; staple 5-9)
IC50 (μM) BEAS-2B, toxicity against normal cells [1]: 9.61 ± 0.35 µM | IC50 (μM) 293T, toxicity against normal cells [2]: 5.82 ± 0.45 µM | Helicity (%) [3]: 49.0% | IC50 (μM) LO-2, toxicity against normal cells [4]: 7.80 ± 0.21 µM

Reference: article PMC9081086, “Stapling strategy enables improvement of antitumor activity and proteolytic stability of host-defense peptide hymenochirin-1B” (RSC Advances, 2018)
